# Experimental data taken from patent publication US7195787B1, “Skincare composition against free radicals” (The Boots Company PLC, priority 1999, dated 2007).
# Experiment: lipid peroxidation assay: protection of linoleic acid from UV light
# Assay type: biochemical
# Details: antioxidant at the printed concentration (1.50%, 0.10%, 0.10%, combination 1.70%)
# Experimental: The following procedure tests the ability of antioxidants to protect lipids form the damaging effects of UV light. The antioxidants to be tested are morus alba (“Mulberry Concentrate” from Aston Chemicals), magnesium ascorbyl phosphate and panax ginseng (“Phytexcell Panax ginseng” from Croda Chemicals Ltd). The antioxidants were tested individually at a particular concentration and in combination. In the test the antioxidant or combination of antioxidants is mixed with a known skin lipid (linoleic acid) and irradiated using UV light. The quantity of peroxides in each sample is measured colourimetrically after irradiation to assess the level of damage caused by peroxidation of the linoleic acid.
# A 1% lipid stock solution is prepared dissolving linoleic in an aqueous solution of octoxynol-9 (Triton X-100). Stock solutions in aqueous TBS buffer of the following antioxidants magnesium ascorbyl phosphate, morus alba and panax ginseng were prepared at 15%, 1.0% and 1.0% respectively. […]
# Using a micropipette plate 7.5 μl of each sample is pipetted into 3 wells, i.e. in triplicate, and irradiated with UV light for 40 minutes. […] The reaction that occurs causes a colour change from colourless to blue which is measured colourimetrically at 675 nm. The more peroxides present the darker the blue colouration and the higher the observed absorbance.
structure (smiles),measurement,setting,value
"O=C1O[C@H]([C@@H](O)CO)C([O-])=C1OP(=O)([O-])[O-].O=C1O[C@H]([C@@H](O)CO)C([O-])=C1OP(=O)([O-])[O-].[Mg+2].[Mg+2].[Mg+2] [Magnesium ascorbyl phosphate, magnesium ascorbyl phosphate]",Absorbance,"675 nm, after 40 minutes UV, 0.5% linoleic acid",0.84
same,percentage of peroxidation observed when compared to that seen with the irradiated controls,40 minutes UV,>100%
